# Like-named read-outs stand apart in the source and are kept apart here.
# What was measured:
# [1] = test system: nuOXPHOS transcripts; type: cell-based, mouse; details: for nucOX (composite Z-score): normalized score vs mock-treated (DMSO) wells
# [2] = test system: mitochondrial membrane potential; type: cell-based, mouse; details: for ΔΨm (composite Z-score): normalized score vs mock-treated (DMSO) wells
# [3] = test system: C2C12 myotubes; details: for Viability (composite Z-score): normalized score vs mock-treated (DMSO) wells
# [4] = test system: OXPHOS gene expression; type: cell-based, mouse; details: for GE-HTS (composite Z-score): normalized score vs mock-treated (DMSO) wells
# [5] = test system: cytochrome c; type: cell-based, mouse; details: for cyt c (composite Z-score): normalized score vs mock-treated (DMSO) wells
# [6] = test system: reactive oxygen species; type: cell-based, mouse; details: for ROS (composite Z-score): normalized score vs mock-treated (DMSO) wells
# [7] = test system: mtOXPHOS transcripts; type: cell-based, mouse; details: for mitoOX (composite Z-score): normalized score vs mock-treated (DMSO) wells
# [8] = test system: cellular dehydrogenase activity; details: for MTT (composite Z-score): normalized score vs mock-treated (DMSO) wells
# [9] = composite Z-score vs DMSO, Conc 20 μM
# [10] = normalized composite Z-score vs mock-treated (DMSO) wells, Conc 20 μM
# [11] = composite Z-score vs mock-treated (DMSO) wells, Conc 20 μM
# [12] = composite Z-score vs DMSO wells, Conc 20 μM
# [13] = composite Z-score vs DMSO, Conc 20.38 μM
# [14] = 20 μM, composite Z-score vs DMSO
# Chain of cytochrome c (P62897 whole entry): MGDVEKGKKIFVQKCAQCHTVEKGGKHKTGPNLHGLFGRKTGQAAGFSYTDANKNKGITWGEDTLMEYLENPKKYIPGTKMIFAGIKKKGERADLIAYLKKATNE
compound,measurement,setting,value
O=C(O)/C=C/C=C/c1ccccc1 [juarezic acid],nucOX,[1]; [9],0.108
same,ΔΨm,[2]; [9],−0.821
same,Viability,[3]; [9],−0.106
same,GE-HTS,[4]; [9],−0.147
same,cyt c,[5]; [9],−0.113
same,ROS,[6]; [9],0.345
same,mitoOX,[7]; [9],−0.650
same,MTT,[8]; [9],−0.449
O=C(O)c1nc2cc(Cl)c(Cl)cc2nc1O,nucOX (composite Z-score),[1]; Conc 20 μM,−0.313
same,ΔΨm (composite Z-score),[2]; Conc 20 μM,−0.521
same,Viability (composite Z-score),[3]; Conc 20 μM,0.109
same,GE-HTS (composite Z-score),[4]; Conc 20 μM,−0.320
same,cyt c (composite Z-score),[5]; Conc 20 μM,0.217
same,ROS (composite Z-score),[6]; Conc 20 μM,0.666
same,mitoOX (composite Z-score),[7]; Conc 20 μM,−0.230
same,MTT (composite Z-score),[8]; Conc 20 μM,−0.131
NC(=O)C1(O)C[C@@H](O)C(O)[C@H](O)C1 (some centres unmarked) [quinamide],nucOX (composite Z-score),[1]; Conc 20 μM,−0.529
same,ΔΨm (composite Z-score),[2]; Conc 20 μM,−0.518
same,Viability (composite Z-score),[3]; Conc 20 μM,−0.397
same,GE-HTS (composite Z-score),[4]; Conc 20 μM,−0.139
same,cyt c (composite Z-score),[5]; Conc 20 μM,0.359
same,ROS (composite Z-score),[6]; Conc 20 μM,0.405
same,mitoOX (composite Z-score),[7]; Conc 20 μM,0.735
same,MTT (composite Z-score),[8]; Conc 20 μM,−1.034
C[C@@H]1C(=O)O[C@H]2C[C@@]34[C@H]5C[C@@H](C(C)(C)C)[C@]36[C@@H](OC(=O)[C@@H]6O)O[C@@]4(C(=O)O5)[C@]21O [ginkgolide A],nucOX,[1]; [10],−0.286
same,ΔΨm,[2]; [10],−0.271
same,Viability,[3]; [10],0.380
same,GE-HTS,[4]; [10],−0.247
same,cyt c,[5]; [10],0.541
same,ROS,[6]; [10],1.848
same,mitoOX,[7]; [10],−0.123
same,MTT,[8]; [10],−1.019
C=C(C)[C@H]1COc2cc3oc(=O)ccc3cc2O1 [obliquin],nucOX,[1]; [11],−0.459
same,ΔΨm,[2]; [11],0.088
same,Viability,[3]; [11],0.539
same,GE-HTS,[4]; [11],−0.313
same,cyt c,[5]; [11],−1.172
same,ROS,[6]; [11],0.977
same,mitoOX,[7]; [11],0.105
same,MTT,[8]; [11],−0.268
Cc1onc(-c2c(Cl)cccc2Cl)c1C(=O)N[C@@H]1C(=O)N2[C@@H]1SC(C)(C)[C@@H]2C(=O)O [dicloxacillin sodium],nucOX,[1]; [12],0.533
same,ΔΨm,[2]; [12],0.196
same,Viability,[3]; [12],−0.214
same,GE-HTS,[4]; [12],0.661
same,cyt c,[5]; [12],−1.277
same,ROS,[6]; [12],−0.070
same,mitoOX,[7]; [12],0.870
same,MTT,[8]; [12],−0.587
[O-][n+]1ccccc1[S-].[O-][n+]1ccccc1[S-].[Zn+2] [pyrithione zinc],nucOX (composite Z-score vs DMSO),[1],−4.140
same,ΔΨm (composite Z-score vs DMSO),[2],−3.529
same,Viability (composite Z-score vs DMSO),[3],−5.339
same,GE-HTS (composite Z-score vs DMSO),[4],−3.250
same,cyt c (composite Z-score vs DMSO),[5],−4.773
same,ROS (composite Z-score vs DMSO),[6],−2.405
same,mitoOX (composite Z-score vs DMSO),[7],−0.770
same,MTT (composite Z-score vs DMSO),[8],−6.284
C[C@@]12C(=O)OC(=O)[C@]1(C)[C@H]1CC[C@@H]2O1 [cantharidin],nucOX,[1]; [9],0.477
same,nucOX,[1]; [13],0.144
same,ΔΨm,[2]; [9],−2.513
same,ΔΨm,[2]; [13],−2.722
same,Viability,[3]; [9],−4.063
same,Viability,[3]; [13],−4.714
same,GE-HTS,[4]; [9],1.196
same,GE-HTS,[4]; [13],0.217
same,cyt c,[5]; [9],−5.284
same,cyt c,[5]; [13],−5.104
same,ROS,[6]; [9],−2.764
same,ROS,[6]; [13],−2.786
same,mitoOX,[7]; [9],2.498
same,mitoOX,[7]; [13],0.310
same,MTT,[8]; [9],−5.729
same,MTT,[8]; [13],−5.122
OC(c1cc(C(F)(F)F)nc2c(C(F)(F)F)cccc12)C1CCCCN1 (centres unmarked) [mefloquine],nucOX,[1],−0.073
same,nucOX,[1]; [14],0.552
same,ΔΨm,[2],−0.537
same,ΔΨm,[2]; [14],−0.505
same,Viability,[3],−0.183
same,Viability,[3]; [14],1.135
same,GE-HTS,[4],−0.036
same,GE-HTS,[4]; [14],0.362
same,cyt c,[5],0.498
same,cyt c,[5]; [14],−1.496
same,ROS,[6],−0.069
same,ROS,[6]; [14],−0.983
same,mitoOX,[7],0.007
same,mitoOX,[7]; [14],−0.093
same,MTT,[8],−1.368
same,MTT,[8]; [14],0.374
C[C@H]1C[C@@H]2[C@H]([C@@H](O)C[C@@]3(C)[C@H]2CC[C@]3(O)C(=O)CO)[C@@]2(C)C=CC(=O)C=C12 [methylprednisolone],nucOX,[1],−0.138
same,ΔΨm,[2],−0.375
same,Viability,[3],−0.631
same,GE-HTS,[4],−0.220
same,cyt c,[5],−0.102
same,ROS,[6],0.133
same,mitoOX,[7],−0.270
same,MTT,[8],−1.014
COc1c(O)cc2c(-c3ccccc3)cc(=O)oc2c1OC [kuhlmannin],nucOX (composite Z-score),[1]; Conc 20 μM,0.646
same,ΔΨm (composite Z-score),[2]; Conc 20 μM,0.133
same,Viability (composite Z-score),[3]; Conc 20 μM,0.333
same,GE-HTS (composite Z-score),[4]; Conc 20 μM,0.624
same,cyt c (composite Z-score),[5]; Conc 20 μM,−0.170
same,ROS (composite Z-score),[6]; Conc 20 μM,0.443
same,mitoOX (composite Z-score),[7]; Conc 20 μM,0.408
same,MTT (composite Z-score),[8]; Conc 20 μM,−0.487
CC(=O)O[C@H]1CC[C@]2(C)[C@H]3CC[C@@]4(C)[C@H](c5ccoc5)OC(=O)[C@H]5O[C@]54[C@]3(C)[C@H](OC(C)=O)C[C@H]2C1(C)C [3beta-acetoxydeoxodihydrogedunin],nucOX,[1]; [11],−1.055
same,ΔΨm,[2]; [11],0.254
same,Viability,[3]; [11],0.311
same,GE-HTS,[4]; [11],−1.016
same,cyt c,[5]; [11],0.759
same,ROS,[6]; [11],0.055
same,mitoOX,[7]; [11],−0.694
same,MTT,[8]; [11],−0.528
CC(=O)O[C@@H]1CC[C@@]2(C)C(C[C@@H](OC(C)=O)[C@@]3(C)C4=CC(=O)O[C@@H](c5ccoc5)[C@]4(C)CCC23)C1(C)C (stereo partly drawn) [3alpha-acetoxydihydrodeoxygedunin],nucOX,[1]; [11],−1.123
same,ΔΨm,[2]; [11],1.157
same,Viability,[3]; [11],0.781
same,GE-HTS,[4]; [11],−0.987
same,cyt c,[5]; [11],0.179
same,ROS,[6]; [11],2.371
same,mitoOX,[7]; [11],−0.584
same,MTT,[8]; [11],−1.653
avermectin B1,nucOX,[1]; [9],0.170
same,ΔΨm,[2]; [9],−0.336
same,Viability,[3]; [9],0.129
same,GE-HTS,[4]; [9],0.198
same,cyt c,[5]; [9],0.116
same,ROS,[6]; [9],2.442
same,mitoOX,[7]; [9],0.295
same,MTT,[8]; [9],−0.284
